Laboratory results taken from the C3SDB collision cross section collection.
“And” between values parts separate entries of the source, which are not always exact repeats. Equal values may be shown once.

Experiments:
[1] = instrument: TW, calibrated with phosphatidylcholines (ESI+) and phosphatidylethanolamines (ESI-)
[2] = instrument: TW, calibrated with phosphatidylcholines (ESI+) and phosphatidylethanolamines (ESI-); remark: listed apart in the source
[3] = instrument: DT, single field, calibrated with Agilent tune mix (Agilent)
[4] = instrument: DT, stepped-field
[5] = instrument: DT, single field
[6] = instrument: DT, stepped-field; remark: listed apart in the source

CCCCCCCCCCCC=CCC(=O)OC[C@H](CO[C@@H]1O[C@H](CO[C@H]2O[C@H](CO)[C@H](O)C(O)C2O)[C@H](O)C(O)C1O)OC(=O)CC=CCCCCCCCCCCC (some centres not stated) [DGDG(30:2)]
collision cross section (N2) ([1]; [M+NH4]+): 295.4 Å² | collision cross section (N2) ([1]; [M+Na]+): 291.7 Å²

CCCCCCCCCCCCCCCC(=O)OC[C@H](CO[C@@H]1O[C@H](CO[C@H]2O[C@H](CO)[C@H](O)C(O)C2O)[C@H](O)C(O)C1O)OC(=O)CCCCCCCCCCCCCCC (some centres not stated) [DGDG(32:0)]
collision cross section (N2) ([1]; [M+NH4]+): 308.5 Å² | collision cross section (N2) ([1]; [M+Na]+): 306.7 Å²

CCCCCCCCCCCCC=CCC=CCC(=O)OC[C@H](CO[C@@H]1O[C@H](CO[C@H]2O[C@H](CO)[C@H](O)C(O)C2O)[C@H](O)C(O)C1O)OC(=O)CC=CCCCCCCCCCCCCCC (some centres not stated) [DGDG(35:1)]
collision cross section (N2) ([1]; M+NH4]+): 317.4 Å²

CCCCCCCCCCCCCCCCCC(=O)OC[C@H](CO[C@@H]1O[C@H](CO[C@H]2O[C@H](CO)[C@H](O)C(O)C2O)[C@H](O)C(O)C1O)OC(=O)CCCCCCCCCCCCCCCCC (some centres not stated) [DGDG(36:0)]
collision cross section (N2) ([1]; [M+NH4]+): 326.8 Å²

CCCCCC/C=C\CCCCCCCCCC(=O)O[C@H](CO)COP(=O)(O)OCCN [LPE(18:1)]
collision cross section (N2) ([2]; [M+H]+): 214.2 Å² | collision cross section (N2) ([2]; [M+Na]+): 219 Å² | collision cross section (N2) ([2]; [M-H]-): 210.2 Å² | collision cross section (N2) ([3]; [M+H]+): 215.8 Å² | collision cross section (N2) ([3]; [M+Na]+): 222.1 Å² | collision cross section (N2) ([3]; [M-H]-): 211.3 Å² | collision cross section (N2) ([4]; [M-H]-): 210.1 Å²

CCCCCCCCCCCCCCC(=O)OCC(COP(=O)([O-])OCC(O)COC(=O)C(N)CCCC[NH3+])OC(=O)CCCCCCCCCCCCC (configuration not stated) [LysPG(29:0)]
collision cross section (N2) ([1]; [M+H]+): 287.8 Å²

CCCCCC/C=C\CCCCCCCCCC(=O)OCC(COP(=O)([O-])OCC(O)COC(=O)C(N)CCCC[NH3+])OC(=O)CCCCCCC/C=C\CCCCCC (configuration not stated) [LysPG(34:2)]
collision cross section (N2) ([1]; [M+H]+): 298.4 Å²

CCCCCCCCCCCCCCCCCCCC(=O)OC(COC(=O)CCCCCCCCCCCCCC)COP(=O)([O-])OCC(O)COC(=O)C(N)CCCC[NH3+] (configuration not stated) [LysPG(35:0)]
collision cross section (N2) ([1]; [M+H]+): 305.4 Å²

CC/C=C\C/C=C\C/C=C\CCCCCCCC(=O)OC[C@H](CO[C@@H]1O[C@H](CO)[C@H](O)C(O)C1O)OC(=O)CCCCC/C=C\CCCCCCCC (some centres not stated) [MGDG(16:1/18:3)]
collision cross section (N2) ([1]; [M+NH4]+): 281.2 Å² | collision cross section (N2) ([1]; [M+Na]+): 278.6 Å²

CC/C=C\C/C=C\C/C=C\CCCCCCCC(=O)OC[C@H](CO[C@@H]1O[C@H](CO)[C@H](O)C(O)C1O)OC(=O)CCCCCCC/C=C\C/C=C\C/C=C\CC (some centres not stated) [MGDG(18:3/18:3)]
collision cross section (N2) ([1]; [M+CH3COO]-): 286.3 Å² | collision cross section (N2) ([1]; [M+Cl]-): 278.5 Å² | collision cross section (N2) ([1]; [M+K]+): 282.5 Å² | collision cross section (N2) ([1]; [M+NH4]+): 284.1 Å² | collision cross section (N2) ([1]; [M+Na]+): 281 Å² | collision cross section (N2) ([1]; [M-H]-): 276.2 Å²

CCCCCCCCCCCCCCCCCCC(=O)OC[C@H](COP(=O)(O)O)OC(=O)CCCCCCCCCCCC [PA(16:0/16:0)]
collision cross section (N2) ([1]; [M-H]-): 251.4 Å²

CCCCCCCCCCCCCCCCC(=O)OC[C@H](COP(=O)(O)O)OC(=O)CCCCCCCCCCCC [PA(30:0)]
collision cross section (N2) ([1]; [M-H]-): 244.9 Å²

CCCCCCCCCCCCCCCCCCCCC(=O)O[C@H](COC(=O)CCCCCCCCCCCC)COP(=O)([O-])OCC[N+](C)(C)C [PC(34:0)]
collision cross section (N2) ([2]; [M+H]+): 285.8 Å² | collision cross section (N2) ([3]; [M+H]+): 289.7 Å² | collision cross section (N2) ([5]; [M+H]+): 289.07 Å² and 290.41 Å² | collision cross section (N2) ([5]; [M+Na]+): 288.39 Å² | collision cross section (N2) ([4]; [M+H]+): 301.1 Å²

CCCCCC/C=C\CCCCCCCCCC(=O)OC[C@H](COP(=O)([O-])OCC[N+](C)(C)C)OC(=O)CCCCCCCCCCCCCCC [PC(34:1)]
collision cross section (N2) ([2]; [M+CH3COO]-): 289.1 Å² | collision cross section (N2) ([2]; [M+H]+): 285.3 Å² | collision cross section (N2) ([3]; [M+H]+): 287.1 Å² | collision cross section (N2) ([5]; [M+H]+): 285.62 Å² and 287.54 Å² | collision cross section (N2) ([4]; [M+H]+): 300.3 Å²

CCCCCCCC/C=C\C/C=C\C/C=C\CCCC(=O)OC[C@H](COP(=O)([O-])OCC[N+](C)(C)C)OC(=O)CCCCCCCCCCCCC [PC(34:3)]
collision cross section (N2) ([2]; [M+H]+): 278.8 Å² | collision cross section (N2) ([3]; [M+HCOO]-): 283.5 Å² | collision cross section (N2) ([3]; [M+H]+): 281.8 Å² | collision cross section (N2) ([6]; [M+K]+): 292.4 Å² | collision cross section (N2) ([4]; [M+H]+): 292.3 Å²

CCCCC/C=C\C/C=C\CCCCCCCCCC(=O)O[C@H](COC(=O)CCCCCCCCCCCCCCC)COP(=O)(O)OCCN [PE(36:2)]
collision cross section (N2) ([2]; [M+H]+): 275.7 Å² | collision cross section (N2) ([2]; [M-H]-): 267.4 Å² | collision cross section (N2) ([3]; [M+H]+): 279.3 Å² | collision cross section (N2) ([3]; [M+Na]+): 284.6 Å² | collision cross section (N2) ([3]; [M-H]-): 268.5 Å² | collision cross section (N2) ([6]; [M+Na]+): 285.7 Å² | collision cross section (N2) ([4]; [M+H]+): 293 Å² | collision cross section (N2) ([4]; [M-H]-): 276 Å² and 275.9 Å²

CCCCC/C=C\C/C=C\CCCCCCCCCC(=O)O[C@H](COC(=O)CCCCCCC/C=C\C/C=C\CCCCC)COP(=O)(O)OCCN [PE(38:4)]
collision cross section (N2) ([2]; [M+H]+): 280.4 Å² | collision cross section (N2) ([2]; [M-H]-): 271.1 Å² | collision cross section (N2) ([3]; [M+H]+): 282.9 Å² | collision cross section (N2) ([6]; [M+Na]+): 290 Å² | collision cross section (N2) ([4]; [M-H]-): 278.4 Å² and 277.4 Å²

CCCCC/C=C\C/C=C\CCCCCCCCCCCC(=O)O[C@H](COC(=O)CCCCCCC/C=C\C/C=C\CCCCC)COP(=O)(O)OCCN [PE(40:4)]
collision cross section (N2) ([2]; [M+H]+): 286.8 Å² | collision cross section (N2) ([2]; [M-H]-): 277.3 Å² | collision cross section (N2) ([3]; [M+H]+): 288.1 Å² | collision cross section (N2) ([3]; [M+Na]+): 293.3 Å² | collision cross section (N2) ([3]; [M-H]-): 278.5 Å² | collision cross section (N2) ([4]; [M-H]-): 287.9 Å² and 287.8 Å²

CC/C=C\C/C=C\C/C=C\C/C=C\C/C=C\CCCC(=O)O[C@H](COCCCCCCCCCCCCCCCC)COP(=O)(O)OCCN [PE(o36:5)]
collision cross section (N2) ([6]; [M+Na]+): 279.2 Å² | collision cross section (N2) ([4]; [M-H]-): 270.4 Å²

CC/C=C\C/C=C\C/C=C\C/C=C\CCCCC(=O)OC[C@H](COP(=O)(O)OC[C@@H](O)CO)OC(=O)CCCCCCCCCCCCCCCCC [PG(36:4)]
collision cross section (N2) ([2]; [M+Na]+): 281 Å² | collision cross section (N2) ([2]; [M-H]-): 271.3 Å² | collision cross section (N2) ([3]; [M+NH4]+): 283.4 Å² | collision cross section (N2) ([4]; [M-H]-): 278 Å²

CCCCC/C=C\C/C=C\C/C=C\CCCCCCC(=O)O[C@H](COC(=O)CCCCCCC/C=C\CCCCCC)COP(=O)(O)O[C@H]1C(O)C(O)C(O)[C@@H](O)C1O (some centres not stated) [PI(36:4)]
collision cross section (N2) ([2]; [M+Na]+): 290.5 Å² | collision cross section (N2) ([2]; [M-H]-): 286.1 Å² | collision cross section (N2) ([3]; [M+H]+): 296.5 Å² | collision cross section (N2) ([3]; [M+NH4]+): 297.3 Å² | collision cross section (N2) ([3]; [M+Na]+): 294.5 Å² | collision cross section (N2) ([4]; [M-H]-): 297.2 Å²

CCCCC/C=C\C/C=C\CCCCCCCCCCCC(=O)O[C@H](COC(=O)CCCCCCC/C=C\CCCCCC)COP(=O)(O)O[C@H]1C(O)C(O)C(O)[C@@H](O)C1O (some centres not stated) [PI(38:3)]
collision cross section (N2) ([2]; [M+Na]+): 298.5 Å² | collision cross section (N2) ([2]; [M-H]-): 293 Å² | collision cross section (N2) ([3]; [M+H]+): 304.2 Å² | collision cross section (N2) ([3]; [M+NH4]+): 306 Å² | collision cross section (N2) ([3]; [M+Na]+): 303.1 Å² | collision cross section (N2) ([3]; [M-H]-): 293.7 Å² | collision cross section (N2) ([4]; [M-H]-): 301.7 Å² and 303.9 Å²

CC/C=C\C/C=C\C/C=C\C/C=C\CCCCC(=O)OC[C@H](COP(=O)(O)O[C@H]1C(O)C(O)C(O)[C@@H](O)C1O)OC(=O)CCCCCCCCCCCCCCCCCCC (some centres not stated) [PI(38:4)]
collision cross section (N2) ([2]; [M+Na]+): 297.4 Å² | collision cross section (N2) ([2]; [M-H]-): 292.1 Å² | collision cross section (N2) ([3]; [M+H]+): 302.3 Å² | collision cross section (N2) ([3]; [M+NH4]+): 304 Å² | collision cross section (N2) ([3]; [M-H]-): 292.9 Å² | collision cross section (N2) ([4]; [M-H]-): 303.6 Å² and 300.7 Å²

CCCCCCCCCC/C=C\CCCCCCCCCC(=O)O[C@H](COC(=O)CCCCCCCCCCCCC)COP(=O)(O)OC[C@H](N)C(=O)O [PS(36:1)]
collision cross section (N2) ([2]; [M-H]-): 278.8 Å² | collision cross section (N2) ([3]; [M+H]+): 286.2 Å² | collision cross section (N2) ([3]; [M+Na]+): 287.5 Å² | collision cross section (N2) ([3]; [M-H]-): 279.1 Å² | collision cross section (N2) ([4]; [M-H]-): 289.4 Å²

CCCCC/C=C\C/C=C\CCCCCCCCCCCC(=O)O[C@H](COC(=O)CCCCCCC/C=C\CCCCCC)COP(=O)(O)OC[C@H](N)C(=O)O [PS(38:3)]
collision cross section (N2) ([2]; [M-H]-): 281.7 Å² | collision cross section (N2) ([4]; [M-H]-): 292.4 Å²
